Assays:
Experiment in all cases: biochemical
Design in all cases: SelectScreen Z'-LYTE purified kinase panel, per cent inhibition, mean of two points
Conditions in all cases: (μM)=Km app
[1] = target: ABL1 (Homo sapiens, UniProt P00519)
[2] = target: ABL1 T315I (Homo sapiens, UniProt P00519, T315I)
[3] = target: BTK (Homo sapiens, UniProt Q06187)
[4] = target: T1, DNA-PK (Homo sapiens, UniProt P78527)
T1 construct: gene PRKDC

[5] = target: EPHA2 (Homo sapiens, UniProt P29317)
[6] = target: ERBB4 (HER4) (Homo sapiens, UniProt Q15303)
[7] = target: FGFR2 (Homo sapiens, UniProt P21802)
Sequence of FGFR2 (P21802 whole entry): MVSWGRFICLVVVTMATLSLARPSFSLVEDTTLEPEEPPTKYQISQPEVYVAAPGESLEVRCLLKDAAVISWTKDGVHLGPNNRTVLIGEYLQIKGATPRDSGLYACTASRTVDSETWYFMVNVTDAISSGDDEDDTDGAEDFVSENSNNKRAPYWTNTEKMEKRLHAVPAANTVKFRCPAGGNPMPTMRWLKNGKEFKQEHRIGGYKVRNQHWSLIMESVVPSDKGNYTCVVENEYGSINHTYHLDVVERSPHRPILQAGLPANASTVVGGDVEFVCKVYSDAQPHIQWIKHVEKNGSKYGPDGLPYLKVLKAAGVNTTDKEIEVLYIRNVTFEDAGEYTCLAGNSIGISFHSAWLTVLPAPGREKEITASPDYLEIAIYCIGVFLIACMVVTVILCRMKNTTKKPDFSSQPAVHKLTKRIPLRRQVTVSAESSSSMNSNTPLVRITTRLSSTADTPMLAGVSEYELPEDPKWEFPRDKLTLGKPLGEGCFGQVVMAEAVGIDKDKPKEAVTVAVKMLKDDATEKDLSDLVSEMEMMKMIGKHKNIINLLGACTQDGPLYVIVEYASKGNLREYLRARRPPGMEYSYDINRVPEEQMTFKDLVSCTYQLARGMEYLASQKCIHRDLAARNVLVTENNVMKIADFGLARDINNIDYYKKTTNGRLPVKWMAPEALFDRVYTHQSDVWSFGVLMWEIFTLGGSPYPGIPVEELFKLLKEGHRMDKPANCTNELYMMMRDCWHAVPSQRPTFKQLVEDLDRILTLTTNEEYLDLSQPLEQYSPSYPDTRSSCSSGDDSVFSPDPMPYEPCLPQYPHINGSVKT

[8] = target: T2, FLT3 (Homo sapiens, UniProt P36888)
T2 sequence (P36888 1-993): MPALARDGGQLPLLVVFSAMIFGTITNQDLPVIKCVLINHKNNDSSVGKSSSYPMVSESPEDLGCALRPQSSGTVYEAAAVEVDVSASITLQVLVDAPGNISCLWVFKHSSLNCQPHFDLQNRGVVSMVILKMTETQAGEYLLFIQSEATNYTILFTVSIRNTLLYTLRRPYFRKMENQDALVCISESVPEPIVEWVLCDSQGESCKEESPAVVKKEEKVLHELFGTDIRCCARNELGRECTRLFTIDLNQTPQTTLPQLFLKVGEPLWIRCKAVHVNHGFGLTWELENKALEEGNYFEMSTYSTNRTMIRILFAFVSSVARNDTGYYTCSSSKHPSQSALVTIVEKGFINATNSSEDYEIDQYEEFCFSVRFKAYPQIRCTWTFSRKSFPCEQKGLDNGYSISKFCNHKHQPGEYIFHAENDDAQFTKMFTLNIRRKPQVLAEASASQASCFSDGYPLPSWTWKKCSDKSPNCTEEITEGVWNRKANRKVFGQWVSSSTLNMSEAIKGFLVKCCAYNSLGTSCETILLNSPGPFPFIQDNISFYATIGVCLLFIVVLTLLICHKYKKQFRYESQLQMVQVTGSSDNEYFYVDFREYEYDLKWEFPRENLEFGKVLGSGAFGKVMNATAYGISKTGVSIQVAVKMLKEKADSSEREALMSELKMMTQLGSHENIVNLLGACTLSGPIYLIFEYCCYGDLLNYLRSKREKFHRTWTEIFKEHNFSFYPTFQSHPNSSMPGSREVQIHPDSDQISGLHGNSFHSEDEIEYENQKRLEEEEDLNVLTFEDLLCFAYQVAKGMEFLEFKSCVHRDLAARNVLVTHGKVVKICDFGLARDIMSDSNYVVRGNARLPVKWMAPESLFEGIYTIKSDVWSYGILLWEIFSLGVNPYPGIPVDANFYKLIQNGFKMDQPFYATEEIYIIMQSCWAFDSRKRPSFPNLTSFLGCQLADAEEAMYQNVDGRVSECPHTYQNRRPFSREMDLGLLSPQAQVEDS

[9] = target: INSR (Homo sapiens, UniProt P06213)
Sequence of INSR (P06213 whole entry): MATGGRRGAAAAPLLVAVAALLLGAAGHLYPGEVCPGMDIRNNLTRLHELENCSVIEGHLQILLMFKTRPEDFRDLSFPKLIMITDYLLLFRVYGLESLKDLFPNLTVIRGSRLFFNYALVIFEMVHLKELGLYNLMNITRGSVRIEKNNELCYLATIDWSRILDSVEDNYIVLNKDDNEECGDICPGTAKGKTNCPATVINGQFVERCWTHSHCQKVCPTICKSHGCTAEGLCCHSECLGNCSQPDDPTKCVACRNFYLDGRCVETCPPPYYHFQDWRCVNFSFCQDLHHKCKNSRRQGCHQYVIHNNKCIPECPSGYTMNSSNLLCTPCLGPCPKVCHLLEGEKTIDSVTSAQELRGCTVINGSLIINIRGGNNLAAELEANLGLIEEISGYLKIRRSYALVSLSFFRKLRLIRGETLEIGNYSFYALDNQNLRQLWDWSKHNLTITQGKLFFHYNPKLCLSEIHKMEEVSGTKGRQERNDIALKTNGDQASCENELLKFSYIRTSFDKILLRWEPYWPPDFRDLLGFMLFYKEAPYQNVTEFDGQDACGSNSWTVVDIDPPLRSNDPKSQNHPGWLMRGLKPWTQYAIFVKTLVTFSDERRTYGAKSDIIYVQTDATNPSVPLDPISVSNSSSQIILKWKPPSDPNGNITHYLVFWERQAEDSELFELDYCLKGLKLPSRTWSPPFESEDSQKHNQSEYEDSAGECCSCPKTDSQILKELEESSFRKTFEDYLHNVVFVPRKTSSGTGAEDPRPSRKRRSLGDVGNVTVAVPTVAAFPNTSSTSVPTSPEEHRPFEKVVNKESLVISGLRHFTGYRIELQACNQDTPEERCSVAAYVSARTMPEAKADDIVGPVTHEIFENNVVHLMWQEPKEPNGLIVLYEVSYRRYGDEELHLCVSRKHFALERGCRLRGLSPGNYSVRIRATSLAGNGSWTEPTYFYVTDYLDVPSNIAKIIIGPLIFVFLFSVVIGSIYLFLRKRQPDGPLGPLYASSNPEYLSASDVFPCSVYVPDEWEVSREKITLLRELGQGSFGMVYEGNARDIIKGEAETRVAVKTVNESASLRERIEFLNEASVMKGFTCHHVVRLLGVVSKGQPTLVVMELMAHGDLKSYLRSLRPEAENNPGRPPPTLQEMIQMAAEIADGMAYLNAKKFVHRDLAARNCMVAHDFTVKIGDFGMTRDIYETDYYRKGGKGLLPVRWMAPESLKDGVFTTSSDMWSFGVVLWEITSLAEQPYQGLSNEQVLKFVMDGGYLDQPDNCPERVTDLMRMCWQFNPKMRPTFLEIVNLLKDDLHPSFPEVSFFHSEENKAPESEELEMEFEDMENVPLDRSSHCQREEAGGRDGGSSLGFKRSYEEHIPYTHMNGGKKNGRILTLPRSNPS

[10] = target: JAK2 (Homo sapiens, UniProt O60674)
Sequence of JAK2 (O60674 whole entry): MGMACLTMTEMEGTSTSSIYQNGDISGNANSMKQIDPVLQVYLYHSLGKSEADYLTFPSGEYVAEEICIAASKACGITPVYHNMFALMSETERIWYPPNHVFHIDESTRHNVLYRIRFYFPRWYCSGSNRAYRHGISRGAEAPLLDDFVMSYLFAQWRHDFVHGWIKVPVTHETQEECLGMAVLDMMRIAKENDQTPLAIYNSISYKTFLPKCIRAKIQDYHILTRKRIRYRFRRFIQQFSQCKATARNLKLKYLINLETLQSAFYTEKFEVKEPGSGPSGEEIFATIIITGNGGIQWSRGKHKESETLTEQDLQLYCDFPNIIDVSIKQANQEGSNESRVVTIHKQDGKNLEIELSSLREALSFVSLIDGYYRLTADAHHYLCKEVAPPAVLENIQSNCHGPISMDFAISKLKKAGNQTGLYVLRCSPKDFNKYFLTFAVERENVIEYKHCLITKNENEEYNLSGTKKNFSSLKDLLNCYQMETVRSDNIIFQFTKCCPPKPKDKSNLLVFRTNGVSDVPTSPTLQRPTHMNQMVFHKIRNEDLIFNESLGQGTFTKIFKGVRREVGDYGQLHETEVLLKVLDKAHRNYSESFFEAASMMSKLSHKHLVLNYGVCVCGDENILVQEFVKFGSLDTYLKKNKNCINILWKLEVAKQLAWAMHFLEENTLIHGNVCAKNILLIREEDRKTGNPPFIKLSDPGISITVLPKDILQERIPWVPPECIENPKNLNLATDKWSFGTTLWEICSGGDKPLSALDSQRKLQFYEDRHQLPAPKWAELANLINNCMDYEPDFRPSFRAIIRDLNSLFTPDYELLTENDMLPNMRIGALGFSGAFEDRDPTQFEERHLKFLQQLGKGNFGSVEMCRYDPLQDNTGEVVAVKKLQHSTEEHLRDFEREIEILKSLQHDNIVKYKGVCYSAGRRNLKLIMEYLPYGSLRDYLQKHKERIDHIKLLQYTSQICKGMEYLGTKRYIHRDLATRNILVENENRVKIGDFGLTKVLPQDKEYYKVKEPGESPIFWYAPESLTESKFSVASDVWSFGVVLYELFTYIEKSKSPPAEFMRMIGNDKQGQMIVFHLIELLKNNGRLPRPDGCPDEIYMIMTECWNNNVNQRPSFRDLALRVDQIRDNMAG

[11] = target: T3, JAK2 JH1 JH2 (Homo sapiens, UniProt O60674)
T3 construct: JH1 JH2
T3 sequence (O60674 whole entry): as above

[12] = target: KDR (VEGFR2) (Homo sapiens, UniProt P35968)
[13] = target: MAPK11 (p38 beta) (Homo sapiens, UniProt Q15759)
[14] = target: RET (Homo sapiens, UniProt P07949)
[15] = target: ROCK2 (Homo sapiens, UniProt O75116)

Sequence of EPHA2 (P29317 whole entry): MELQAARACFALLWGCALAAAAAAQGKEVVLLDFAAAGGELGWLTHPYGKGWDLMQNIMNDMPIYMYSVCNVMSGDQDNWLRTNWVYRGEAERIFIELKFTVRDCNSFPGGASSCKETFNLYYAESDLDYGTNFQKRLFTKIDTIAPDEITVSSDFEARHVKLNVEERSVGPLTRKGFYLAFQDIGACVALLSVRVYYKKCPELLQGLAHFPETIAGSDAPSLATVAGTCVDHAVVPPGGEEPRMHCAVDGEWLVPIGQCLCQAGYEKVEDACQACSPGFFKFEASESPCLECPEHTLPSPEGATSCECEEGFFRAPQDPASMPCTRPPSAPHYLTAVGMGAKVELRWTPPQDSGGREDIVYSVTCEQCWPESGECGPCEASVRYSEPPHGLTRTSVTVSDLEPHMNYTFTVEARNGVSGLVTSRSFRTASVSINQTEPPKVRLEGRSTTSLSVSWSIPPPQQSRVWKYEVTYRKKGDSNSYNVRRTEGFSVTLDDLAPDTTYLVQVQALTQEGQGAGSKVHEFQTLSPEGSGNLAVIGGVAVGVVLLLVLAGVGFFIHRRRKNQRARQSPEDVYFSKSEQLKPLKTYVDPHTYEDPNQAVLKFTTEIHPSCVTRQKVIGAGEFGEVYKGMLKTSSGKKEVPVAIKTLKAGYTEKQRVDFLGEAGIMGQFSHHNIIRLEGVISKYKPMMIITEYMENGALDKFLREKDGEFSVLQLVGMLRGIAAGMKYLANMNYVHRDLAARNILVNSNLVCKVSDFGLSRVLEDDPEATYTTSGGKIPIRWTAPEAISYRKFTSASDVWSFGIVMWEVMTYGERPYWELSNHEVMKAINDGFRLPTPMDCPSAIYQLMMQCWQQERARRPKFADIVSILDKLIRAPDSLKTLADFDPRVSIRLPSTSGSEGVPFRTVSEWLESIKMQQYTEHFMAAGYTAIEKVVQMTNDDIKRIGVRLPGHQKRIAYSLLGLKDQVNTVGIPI
Sequence of BTK (Q06187 whole entry): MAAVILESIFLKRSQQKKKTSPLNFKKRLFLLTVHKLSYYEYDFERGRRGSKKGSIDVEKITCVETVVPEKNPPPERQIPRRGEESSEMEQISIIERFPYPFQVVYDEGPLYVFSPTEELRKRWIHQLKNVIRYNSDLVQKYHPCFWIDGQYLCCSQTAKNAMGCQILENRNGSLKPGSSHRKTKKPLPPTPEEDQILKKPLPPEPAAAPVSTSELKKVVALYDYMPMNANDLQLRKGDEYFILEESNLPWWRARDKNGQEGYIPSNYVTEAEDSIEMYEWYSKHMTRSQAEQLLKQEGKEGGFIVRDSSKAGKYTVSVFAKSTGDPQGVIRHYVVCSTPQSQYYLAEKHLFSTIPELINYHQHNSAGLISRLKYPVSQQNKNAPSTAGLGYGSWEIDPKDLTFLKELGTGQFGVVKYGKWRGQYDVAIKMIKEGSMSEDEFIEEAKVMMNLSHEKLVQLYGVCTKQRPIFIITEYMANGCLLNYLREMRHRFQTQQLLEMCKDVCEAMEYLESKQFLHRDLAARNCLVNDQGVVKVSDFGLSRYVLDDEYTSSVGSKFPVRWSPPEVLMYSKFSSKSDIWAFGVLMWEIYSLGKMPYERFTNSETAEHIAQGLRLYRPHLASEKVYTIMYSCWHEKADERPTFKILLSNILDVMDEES

O=C(CSc1nc2nccnc2c(=O)n1CCc1ccccc1)Nc1nccs1 [compound 1, PITCOIN1]
inhibition at 1 µM [1]: 2.07%
inhibition at 3 µM [1]: 2.45%
inhibition at 10 µM [1]: 1.9%
inhibition at 1 µM [2]: -2.1%
inhibition at 3 µM [2]: -3.21%
inhibition at 10 µM [2]: -2.35%
inhibition at 1 µM [3]: 6.72%
inhibition at 3 µM [3]: 3.08%
inhibition at 10 µM [3]: 2.73%
inhibition at 1 µM [4]: 13.4%
inhibition at 3 µM [4]: 14.1%
inhibition at 10 µM [4]: 12.5%
inhibition at 1 µM [5]: 6.54%
inhibition at 3 µM [5]: 8.4%
inhibition at 10 µM [5]: 9.38%
inhibition at 1 µM [6]: -3.45%
inhibition at 3 µM [6]: -1.62%
inhibition at 10 µM [6]: 0.146%
inhibition at 1 µM [7]: 1.54%
inhibition at 3 µM [7]: 2.27%
inhibition at 10 µM [7]: -1.86%
inhibition at 1 µM [8]: 9.16%
inhibition at 3 µM [8]: 8.82%
inhibition at 10 µM [8]: 8.33%
inhibition at 1 µM [9]: 3.42%
inhibition at 3 µM [9]: 3.95%
inhibition at 10 µM [9]: 0.721%
inhibition at 1 µM [10]: 0.852%
inhibition at 3 µM [10]: -8.02%
inhibition at 10 µM [10]: -7.27%
inhibition at 1 µM [11]: -0.97%
inhibition at 3 µM [11]: -0.0652%
inhibition at 10 µM [11]: -0.468%
inhibition at 1 µM [12]: 8.19%
inhibition at 3 µM [12]: 4.57%
inhibition at 10 µM [12]: -0.425%
inhibition at 1 µM [13]: 9.02%
inhibition at 3 µM [13]: 8.06%
inhibition at 10 µM [13]: 7.22%
inhibition at 1 µM [14]: 4.11%
inhibition at 3 µM [14]: 3.69%
inhibition at 10 µM [14]: 4.56%
inhibition at 1 µM [15]: 2.33%
inhibition at 3 µM [15]: 1.58%
inhibition at 10 µM [15]: 5.34%

CS(=O)(=O)Nc1cccc(-c2csc(NC(=O)CSc3nc4nccnc4c(=O)n3CCc3ccccc3)n2)c1 [compound 3, PITCOIN3]
inhibition at 1 µM [1]: 1.91%
inhibition at 3 µM [1]: 4.06%
inhibition at 10 µM [1]: 4%
inhibition at 1 µM [2]: 1.95%
inhibition at 3 µM [2]: 3.78%
inhibition at 10 µM [2]: 2.19%
inhibition at 1 µM [3]: 3.1%
inhibition at 3 µM [3]: 6.59%
inhibition at 10 µM [3]: 3.91%
inhibition at 1 µM [4]: 11%
inhibition at 3 µM [4]: 23.7%
inhibition at 10 µM [4]: 23.3%
inhibition at 1 µM [5]: 13.8%
inhibition at 3 µM [5]: 8.03%
inhibition at 10 µM [5]: 8.38%
inhibition at 1 µM [6]: -2.57%
inhibition at 3 µM [6]: -5.3%
inhibition at 10 µM [6]: -3.59%
inhibition at 1 µM [7]: 6.04%
inhibition at 3 µM [7]: 6.91%
inhibition at 10 µM [7]: 3.2%
inhibition at 1 µM [8]: 12.3%
inhibition at 3 µM [8]: 11%
inhibition at 10 µM [8]: 12.7%
inhibition at 1 µM [9]: 3.69%
inhibition at 3 µM [9]: 4.01%
inhibition at 10 µM [9]: 4.66%
inhibition at 1 µM [10]: -4.04%
inhibition at 3 µM [10]: -2.51%
inhibition at 10 µM [10]: -3.7%
inhibition at 1 µM [11]: 0.755%
inhibition at 3 µM [11]: 0.839%
inhibition at 10 µM [11]: 1.69%
inhibition at 1 µM [12]: 0.654%
inhibition at 3 µM [12]: 10.7%
inhibition at 10 µM [12]: 9.78%
inhibition at 1 µM [13]: 10.5%
inhibition at 3 µM [13]: 8.66%
inhibition at 10 µM [13]: 4.91%
inhibition at 1 µM [14]: 7.87%
inhibition at 3 µM [14]: 5.35%
inhibition at 10 µM [14]: 5%
inhibition at 1 µM [15]: 7.17%
inhibition at 3 µM [15]: -3.73%
inhibition at 10 µM [15]: 2.1%
